Results published in patent publication US20260374782A1, “NEW COMPOUNDS, PROCESSES FOR PREPARING THE SAME AND THEIR USE AS DRUGS” (B&A ONCOMEDICAL, priority 2022, published 2026).

Target: T1, NKCC1 (Homo sapiens, UniProt P55011)
T1 construct: endogenous in cells; host or cells: native HEK293 cells
T1 sequence (P55011 1-1212): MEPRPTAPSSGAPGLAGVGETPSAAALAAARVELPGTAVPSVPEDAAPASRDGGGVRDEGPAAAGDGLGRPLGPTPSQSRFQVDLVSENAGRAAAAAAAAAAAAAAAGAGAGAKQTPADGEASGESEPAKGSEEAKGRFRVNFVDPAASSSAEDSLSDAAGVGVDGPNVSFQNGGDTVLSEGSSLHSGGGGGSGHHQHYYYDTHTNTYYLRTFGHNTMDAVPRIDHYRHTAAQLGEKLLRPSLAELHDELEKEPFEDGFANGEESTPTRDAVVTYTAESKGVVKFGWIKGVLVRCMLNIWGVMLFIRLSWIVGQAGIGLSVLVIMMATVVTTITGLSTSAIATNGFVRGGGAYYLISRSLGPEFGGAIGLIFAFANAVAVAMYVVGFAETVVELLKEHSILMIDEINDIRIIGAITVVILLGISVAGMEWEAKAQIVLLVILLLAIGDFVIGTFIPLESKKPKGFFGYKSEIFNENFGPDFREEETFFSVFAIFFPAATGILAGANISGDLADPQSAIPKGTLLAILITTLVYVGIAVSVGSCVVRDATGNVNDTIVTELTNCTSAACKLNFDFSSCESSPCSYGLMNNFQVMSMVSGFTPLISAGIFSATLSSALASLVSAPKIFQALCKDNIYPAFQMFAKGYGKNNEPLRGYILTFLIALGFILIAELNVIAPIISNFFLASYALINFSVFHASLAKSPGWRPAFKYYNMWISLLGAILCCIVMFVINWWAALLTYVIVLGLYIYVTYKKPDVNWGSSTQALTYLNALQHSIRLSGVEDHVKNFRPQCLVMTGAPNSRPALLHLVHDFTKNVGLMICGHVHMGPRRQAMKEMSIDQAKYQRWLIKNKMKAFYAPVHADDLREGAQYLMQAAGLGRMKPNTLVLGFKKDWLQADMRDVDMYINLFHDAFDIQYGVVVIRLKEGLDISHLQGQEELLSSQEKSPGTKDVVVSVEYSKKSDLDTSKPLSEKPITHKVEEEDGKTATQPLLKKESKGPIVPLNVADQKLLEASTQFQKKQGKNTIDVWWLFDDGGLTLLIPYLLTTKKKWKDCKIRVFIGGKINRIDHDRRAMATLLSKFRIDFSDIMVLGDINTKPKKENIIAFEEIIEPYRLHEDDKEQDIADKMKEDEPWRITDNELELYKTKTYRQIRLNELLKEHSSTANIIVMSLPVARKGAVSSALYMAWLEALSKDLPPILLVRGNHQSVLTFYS
Assay: NKCC1-mediated K+ influx (83Rb tracer uptake) in native HEK293 cells, hypertonic saline, 100 μM ouabain
Type: cell-based
Settings: HEK293, no drug = 1000, 20 μM bumetanide = 0; for inhibition at 2 µM: read-out: NKCC1 mediated flux inhibition at 2 μM (%); for inhibition at 20 µM: read-out: NKCC1 mediated flux inhibition at 20 μM (%)
Summary of the method: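 Native cells in slightly hypertonic saline with 100 μM ouabain; 15 min preincubation then 15 min 83Rb uptake (0.25 μCi/mL), scintillation counting normalized to protein. Compounds at 2 μM and 20 μM; flux scaled 1000 (no drug) to 0 (20 μM bumetanide), triplicate dishes.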

## CCCCNc1cc(C(=O)O)cc(S(=N)(=O)NC)c1Oc1ccccc1 (stereo not shown) [Compound 51, 3-(butylamino)-5-(methylaminosulfonimidoyl)-4-phenoxy-benzoic acid]
  inhibition at 2 µM: 50 to 75%
  inhibition at 20 µM: ≥ 75%

## CCCCNc1cc(C(=O)O)cc(S(=N)(=O)Nc2ccccc2)c1Oc1ccccc1 (stereo not shown) [Compound 57, 3-(anilinosulfonimidoyl)-5-(butylamino)-4-phenoxy-benzoic acid]
  inhibition at 2 µM: 50 to 75%
  inhibition at 20 µM: ≥ 75%
